Reference: publication PMC7962978, “PSMA-D4 Radioligand for Targeted Therapy of Prostate Cancer: Synthesis, Characteristics and Preliminary Assessment of Biological Properties” (International Journal of Molecular Sciences, 2021)
Read-outs that look alike come from different tables or passages of the source.

Legend:
[1] = Lipophilicity determination (logD), shake-flask method; type: physicochemical; conditions: n-octanol / PBS pH 7.4, shake-flask
Protocol: The partition coefficient logD of the radioligands was determined by the shake-flask method. The solution of 10 to 50 MBq of radiolabeled PSMA ligands (D-4, 617, 11, I&T) in 1.0 mL of phosphate-buffered saline (PBS, pH 7.4) was added to 1.0 mL of presaturated n-octanol solution (n = 3). Vials were shaken vigorously for 10 min. To achieve quantitative phase separation, the vials were centrifuged at 1600 rpm for 5 min. The radioactivity concentration in a defined volume of both the aqueous and the organic phase in six replicates each was measured in a γ-counter (Wizard 1470, Wallac, Turku, Finland). The partition coefficient was calculated as the logarithm of the ratio between counts per minute (cpm) measured in the n-octanol phase to the PBS phase counts.

PSMA antigen [2] = biological target: T1, PSMA antigen (Homo sapiens, UniProt Q04609); test: Competitive binding assay on LNCaP cell membranes with [^177Lu]Lu-PSMA-617 as radioligand; conditions: radioligand [^177Lu]Lu-PSMA-617, 2 h incubation
T1 construct: PSMA antigen expressed on LNCaP cell membranes; endogenous in cells; host or cells: LNCaP cell membranes (PC3 membranes as PSMA-negative control)
Protocol: The half-maximal inhibitory concentration (IC50) of PSMA-D4 was determined in a competitive binding assay carried out on 96-well MuliScreen filter plates using LNCaP cell membranes (50 mcL) incubated with [^177Lu]Lu-PSMA-617 as a radioligand and ten different concentrations (2.4–9708 nM) of PSMA-D4. After 2 h incubation, plates were treated in the same way as in the saturation binding assay. The amount of bound radioactivity was measured in γ-counter. IC50 value was evaluated using GraphPad Prism software (Darmstadt, Germany).

mCRPC patients = tested on: mCRPC patients; design: method as in PMID 32172798, PMID 31418764, PMID 32290196; conditions: four clinical studies, approximately 150 mCRPC patients; cited from earlier work
[3] = tested on: PC-3 PIP (PSMA positive) tumor-bearing mice; design: method as in PMID 28102507; conditions: PC-3 PIP tumor, 2 h p.i.v., 1 nmol, BALB/c Nude mice; cited from earlier work
LNCaP cells = test: Cell uptake (total binding) and internalization in LNCaP cells; type: cell-based, human; conditions: 37 °C, 2 h
Protocol: To determine cell uptake and internalization of [^177Lu]Lu-PSMA-D4 and [^90Y]Y-PSMA-D4, LNCaP cells (5 × 10^5 cells well^−1) were incubated in un-supplemented RPMI 1640 medium with one concentration of tested radioligands on 12-well plates in 37 °C per 2 h. After the appropriate time, the medium was removed, and cells were washed twice using phosphate buffer saline (PBS, IITD PAN, Wroclaw, Poland). The cells were treated twice with 1 mL of 50 mM glycine in 0.1 M NaCl at a pH of 2.8 and incubated for 5 min at room temperature to collect extracellularly bound compound. The internalization was determined by measuring the radioactivity of 1mL of 1 M NaOH used for cell lysis. Total binding was calculated as a sum of the membrane and internalized fractions measured using Wallac Wizard 1470 γ counter. As a control, [^177Lu]Lu-PSMA-617 and [^68Ga]Ga-PSMA-11 were used.

PSMA antigen [4] = biological target: T1, PSMA antigen; test: Saturation radioligand binding assay on LNCaP (PSMA positive) and PC3 (PSMA negative) cell membranes; conditions: for Kd: LNCaP cell membranes, 2 h, 37 °C; for Specific Binding: total binding on LNCaP minus non-specific binding on PC3 membranes
Protocol: The equilibrium constant (KD) was determined by a saturation binding experiment performed in PSMA positive LNCaP and PSMA negative PC3 cell membranes isolated according to the procedure developed by Fichna et al.. The 50 mcL of LNCaP and PC3 cell membranes were seeded on special MultiScreen™ 96 well filter plates (Merck, Warsaw, Poland) and incubated for 2 h with increasing concentration of [^177Lu]Lu-PSMA-D4, [^90Y]Y-PSMA-D4, and […] (0.016–194 nM) at 37 °C. After incubation, the unbound radiocomplexes were filtered under vacuum, and the membranes were washed twice using PBS. The filters containing membranes with the attached radiotracer were extruded into tubes using MultiScreen Multile Punch (Merck). The number of associated inhibitors was determined by measuring the radioactivity of squeezed filters using Wallac Wizard 1470 γ counter. The KD and Bmax were calculated by nonlinear regression using the GraphPad Prism statistic program.

LNCaP tumor-bearing mice = conditions: 1 h p.i.v., cited from earlier work
[5] = 0.2 nmol, CD-1 nu/nu mice, ref 14
[6] = 0.2 nmol, CD-1 nu/nu mice, ref 37

T1 sequence (Q04609 whole entry): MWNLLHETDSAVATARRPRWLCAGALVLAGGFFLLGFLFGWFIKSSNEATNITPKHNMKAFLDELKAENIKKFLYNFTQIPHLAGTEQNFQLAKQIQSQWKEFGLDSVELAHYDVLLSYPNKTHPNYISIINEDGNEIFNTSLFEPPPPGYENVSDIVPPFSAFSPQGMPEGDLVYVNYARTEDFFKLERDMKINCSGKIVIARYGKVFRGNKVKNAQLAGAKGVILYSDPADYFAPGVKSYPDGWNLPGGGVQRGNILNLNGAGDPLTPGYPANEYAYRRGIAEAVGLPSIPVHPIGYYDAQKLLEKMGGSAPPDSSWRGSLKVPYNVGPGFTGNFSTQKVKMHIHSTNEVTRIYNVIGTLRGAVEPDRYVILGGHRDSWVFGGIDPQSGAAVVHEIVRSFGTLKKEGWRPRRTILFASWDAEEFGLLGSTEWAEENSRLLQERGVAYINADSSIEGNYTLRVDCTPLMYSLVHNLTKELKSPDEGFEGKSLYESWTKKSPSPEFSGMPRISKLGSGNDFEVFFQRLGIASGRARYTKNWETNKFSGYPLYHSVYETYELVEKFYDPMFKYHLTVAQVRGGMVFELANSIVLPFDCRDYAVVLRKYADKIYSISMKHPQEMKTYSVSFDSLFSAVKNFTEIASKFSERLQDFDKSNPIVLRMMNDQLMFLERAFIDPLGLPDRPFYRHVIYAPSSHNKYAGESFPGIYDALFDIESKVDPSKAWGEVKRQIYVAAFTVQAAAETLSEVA

Work on `O=C([O-])CN1CCN(CC(=O)[O-])CCN(CC(=O)NCC2CCC(C(=O)NC(Cc3ccc4ccccc4c3)C(=O)NCCCCC(NC(=O)NC(CCC(=O)O)C(=O)O)C(=O)O)CC2)CCN(CC(=O)[O-])CC1.[90Y+3]` (stereo not shown) [[^90Y]Y-PSMA-617] yielded a logD [1] of −5.08 ± 0.13.

Compound `O=C(O)CCC(NC(=O)NC(CCCCNC(=O)C(Cc1c[nH]c2ccccc12)NC(=O)C1CCC(CNC(=O)CN2CCN(CC(=O)O)CCN(CC(=O)O)CCN(CC(=O)O)CC2)CC1)C(=O)O)C(=O)O` [PSMA-D4, Glu-CO-Lys-L-Trp-4-Amc-DOTA] has an IC50 (PSMA antigen [2]) of 28.7 ± 5.2 nM.

For `O=C([O-])CN1CCN(CC(=O)[O-])CCN(CC(=O)NCC2CCC(C(=O)NC(Cc3ccc4ccccc4c3)C(=O)NCCCCC(NC(=O)NC(CCC(=O)O)C(=O)O)C(=O)O)CC2)CCN(CC(=O)[O-])CC1.[225Ac+3]` (stereo not shown) [PSMA-617 labeled with actinium-225], the hematologic toxicity (mCRPC patients) is given as “extremely low hematologic toxicity” and the “patients with prostate-specific antigen (PSA) response in terms of PSA decline” value (mCRPC patients) is given as ~90%.

Work on `O=C(O)CC[C@H](NC(=O)N[C@@H](CCCCNC(=O)CCCCCCC(=O)NCCCC[C@@H](NC(=O)[C@@H](Cc1ccccc1)NC(=O)[C@@H](Cc1ccc(O)c(I)c1)NC(=O)CCC(C(=O)O)N1CCN(CC(=O)O)CCN(CC(=O)O)CCN(CC(=O)O)CC1)C(=O)O)C(=O)O)C(=O)O` (stereo partly shown) [PSMA-I&T, Glu-CO-Lys[(Sub)DLys-DPhe-DTyr(3I)-DOTAGA]] yielded an IC50 (PSMA antigen [2]) of 61.1 ± 7.8 nM.

For `O=C([O-])CN1CCN(CC(=O)[O-])CCN(CC(=O)NCC2CCC(C(=O)NC(Cc3ccc4ccccc4c3)C(=O)NCCCCC(NC(=O)NC(CCC(=O)O)C(=O)O)C(=O)O)CC2)CCN(CC(=O)[O-])CC1.[47Sc+3]` (stereo not shown) [[^47Sc]Sc-PSMA-617], the kidneys [3] is listed as 5.97 ± 0.90 %ID g^−1, the spleen [3] is listed as 0.81 ± 0.34 %ID g^−1 and the tumor [3] is listed as 46.7 ± 4.36 %ID g^−1.

Work on `O=C(O)CCc1ccc(O)c(CN(CCN(CC(=O)O)Cc2cc(CCC(=O)NCCCCCC(=O)NCCCC[C@H](NC(=O)N[C@@H](CCC(=O)O)C(=O)O)C(=O)O)ccc2O)CC(=O)O)c1` [PSMA-11, reference compound] yielded an IC50 (PSMA antigen [2]) of 84.5 ± 26.5 nM and an Internalization (LNCaP cells) of 2.6%.

For `O=C([O-])CC[C@H](NC(=O)N[C@@H](CCCCNC(=O)CCCCCCC(=O)NCCCC[C@@H](NC(=O)[C@@H](Cc1ccccc1)NC(=O)[C@@H](Cc1ccc(O)c(I)c1)NC(=O)CC[C@H](C(=O)[O-])N1CCN(CC(=O)[O-])CCN(CC(=O)[O-])CCN(CC(=O)[O-])CC1)C(=O)[O-])C(=O)[O-])C(=O)[O-].[177Lu+3].[H+].[H+].[H+].[H+].[H+]` [[^177Lu]Lu-PSMA-I&T], the logD [1] was −4.47 ± 0.14, the Kd (PSMA antigen [4]) was 5.1 ± 2.6 nM and the “Specific Binding” value (PSMA antigen [4]) was 97.1 ± 2.9%. For the same compound, the kidneys (LNCaP tumor-bearing mice; [5]) was 107.24 ± 15.61 %ID g^−1, the spleen (LNCaP tumor-bearing mice; [5]) was 5.85 ± 2.26 %ID g^−1 and the tumor (LNCaP tumor-bearing mice; [5]) was 7.96 ± 1.76 %ID g^−1. The kidneys (LNCaP tumor-bearing mice; [6]) was 105.3 ± 15.8 %ID g^−1, the spleen (LNCaP tumor-bearing mice; [6]) was 7.9 ± 2.6 %ID g^−1 and the tumor (LNCaP tumor-bearing mice; [6]) was 8.0 ± 1.7 %ID g^−1.

In the case of `O=C([O-])CN1CCN(CC(=O)[O-])CCN(CC(=O)NCC2CCC(C(=O)NC(Cc3ccc4ccccc4c3)C(=O)NCCCCC(NC(=O)NC(CCC(=O)O)C(=O)O)C(=O)O)CC2)CCN(CC(=O)[O-])CC1.[68Ga+3]` (stereo not shown) [[^68Ga]Ga-PSMA-617], the kidneys [3] is given as 3.48 ± 0.18 %ID g^−1, the spleen [3] is given as 0.91 ± 0.14 %ID g^−1 and the tumor [3] is given as 55.8 ± 14.2 %ID g^−1.

In the case of `O=C([O-])CN(CCN(CC(=O)[O-])Cc1cc(CCC(=O)NCCCCCC(=O)NCCCC[C@H](NC(=O)N[C@@H](CCC(=O)O)C(=O)O)C(=O)O)ccc1[O-])Cc1cc(CCC(=O)O)ccc1[O-].[68Ga+3].[OH3+]` [[^68Ga]Ga-PSMA-11], the logD [1] is reported as −3.46 ± 0.06, the Internalization (LNCaP cells) is reported as 2.6% and the “Total Binding” value (LNCaP cells) is reported as 13.1%. For the same compound, the Kd (PSMA antigen [4]) was 11.4 ± 7.1 nM, the “Specific Binding” value (PSMA antigen [4]) was 96.8 ± 2.7% and the tumor (LNCaP tumor-bearing mice; dose n.d., Nude mice) was 7.28 ± 0.82 %ID g^−1. The kidneys [3] was 58.8 ± 7.62 %ID g^−1, the spleen [3] was 2.18 ± 0.38 %ID g^−1 and the tumor [3] was 40.0 ± 2.55 %ID g^−1.
